Results on twelve compounds are retold here after patent publication US20050085554A1, “Methods of treating disease through the administration of a manzamine analog or derivative” (priority 2003, published 2005).

One assay concerns Leishmania donovani. Description: Antileishmanial activity in vitro. It is filed as cell-based.
The test system of assay [1] is Mycobacterium intracellulare. Description: Activity against M. intracellulare. It is filed as cell-based. The settings on record: T7.
Assay [2] has as its system P. falciparum (chlorine-resistant W2 clone). Description: Antimalarial activity in vitro, W2 clone. It is filed as cell-based, Plasmodium falciparum. To be noted: for IC50: Plasmodium falciparum.
For assay [3], the system named is Plasmodium falciparum (D6 clone). Description: Antimalarial activity in vitro, D6 clone. It is filed as cell-based. To be noted: for IC50: Plasmodium falciparum, D6.
Assay [4] deals with Mycobacterium tuberculosis H37Rv. Description: In vitro antimycobacterial activity (Microplate Alamar Blue Assay), MIC. The settings on record: for MIC: Mycobacterium tuberculosis, H37RV. It is filed as cell-based. Background: Alamar Blue is a resazurin reagent that responds to reducing activity.
The mark [5] stands for this setting: T4, NA = not active, read-out: Plasmodium falciparum (D6 clone) IC 50.

Values after ≈ are worked out from the molar mass of the structure shown. Like-named read-outs stand apart in the source and are kept apart here.

Turning to 12-O-methylmanzamine-A, in the assay on Leishmania donovani (T7), the “Leishmania donovani IC 50” value was 6.5 µg/mL and the “Leishmania donovani IC 90” value is 16 µg/mL. The “M. intracellulare IC50” value in assay [1] (first value of a cell '2.0/5.0') was determined as 2.0 µg/mL. The “M. intracellulare, second value of the cell (presumably MIC)” value in assay [1] (value after the slash under head IC50) was 5.0 µg/mL. Moreover, the “P. falciparum (chlorine-resistant W2 clone) IC 50” value (from here on “P. falciparum”) in assay [2] (T7) was determined as 1 µg/mL. The “Plasmodium falciparum (D6 clone) IC 50” value in assay [3] (T7) was 1.9 µg/mL.
On to `CCCCOC12C=C(c3nccc4c3[nH]c3ccccc34)C3CCN(CCCCC=CCC1)CC31CC3C=CCCCCN3C21` (stereo not shown) [12-O-butylmanzamine-A], for which, in the assay on Leishmania donovani (T7), the “Leishmania donovani IC 50” value turned out to be 4.7 µg/mL and the “Leishmania donovani IC 90” value was 9.1 µg/mL.
On to `CCOC12C=C(c3nccc4c3[nH]c3ccccc34)C3CCN(CCCCC=CCC1)CC31CC3C=CCCCCN3C21` (stereo not shown) [12-O-ethylmanzamine-A], for which, in the assay on Leishmania donovani (T7), the “Leishmania donovani IC 50” value came to 2.8 µg/mL and the “Leishmania donovani IC 90” value came to 8.2 µg/mL.
For the compound `CC(C)COC12C=C(c3nccc4c3[nH]c3ccccc34)C3CCN(CCCCC=CCC1)CC31CC3C=CCCCCN3C21` (stereo not shown) [12-O-isobutylmanzamine-A], in the assay on Leishmania donovani (T7), the “Leishmania donovani IC 50” value came to 0.98 µg/mL and the “Leishmania donovani IC 90” value stood at 2.6 µg/mL.
For the compound `CCCOC12C=C(c3nccc4c3[nH]c3ccccc34)C3CCN(CCCCC=CCC1)CC31CC3C=CCCCCN3C21` (stereo not shown) [12-O-propylmanzamine-A], in the assay on Leishmania donovani (T7), the “Leishmania donovani IC 50” value came to 4.5 µg/mL and the “Leishmania donovani IC 90” value was 8.7 µg/mL.
`COc1ccc(OC)c(NC2CCCN3C(CC2)C[C@]24CN5CCCC/C=C\CC[C@](O)(C=C(c6nccc7c6[nH]c6c(O)cccc67)C2CC5)[C@H]34)c1` (stereo partly shown) [33-(2,5-dimethoxyaniline)-manzamine-F]: in assay [2] (T8), the “P. falciparum” value was 2.6 µg/mL. The “Plasmodium falciparum (D6 clone) IC 50” value in assay [3] (T8, NA not defined) turned out to be 1.7 µg/mL.
Regarding `Oc1cccc2c1[nH]c1c(C3=C[C@@]4(O)CC/C=C\CCCCN5CCC3[C@]3(CC6CCC(NCc7ccc(Cl)cc7)CCCN6[C@H]34)C5)nccc12` (stereo partly shown) [33-(p-chlorobenzylamino)-manzamine-F], the “P. falciparum” value in assay [2] (T8) is 1.3 µg/mL. Besides, the “Plasmodium falciparum (D6 clone) IC 50” value in assay [3] (T8, NA not defined) is 0.68 µg/mL.
For `C[C@@H]1CC[C@H]2[C@@H](C)C(=O)O[C@@H]3O[C@@]4(C)CC[C@@H]1[C@]32OO4` [Artemisinin, reference compound], the IC50 is 0.0063 µg/mL (≈ 0.0223 µM) in assay [2] (W2, T4, NA = not active, read-out: P. falciparum (chlorine-resistant W2 clone) IC 50) and 0.01 µg/mL (≈ 0.0354 µM) in assay [3] (setting [5]).
As for `CCN(CC)CCCC(C)Nc1ccnc2cc(Cl)ccc12` (stereo not shown) [Chloroquine, reference compound], the IC50 in assay [2] (W2, read-out: P. falciparum (chlorine-resistant W2 clone) IC 50) was 0.17 µg/mL (≈ 0.531 µM); in assay [2] (W2, T6, read-out: P. falciparum (W2 clone) IC50) it was 0.14 µg/mL (≈ 0.438 µM); in assay [3] (setting [5]), 0.0155 µg/mL (≈ 0.0485 µM); in assay [3] (T6), 0.01 µg/mL (≈ 0.0313 µM).
Take `O[C@]12C=C(c3nccc4c3[nH]c3ccccc34)[C@@H]3CCN(CCCC/C=C\CC1)C[C@@]31CC/C=C\CCCCN[C@H]12` [Manzamine J]: in the assay with Leishmania donovani (T4), the “Leishmania donovani IC 50” value worked out at 25 µg/mL and the “Leishmania donovani IC 90” value is 45 µg/mL. Further, the “Mycobacterium Tuberculosis (H37Rv) MIC” value in assay [4] (T4) was 1.7 µg/mL. In addition, the “P. falciparum” value in assay [2] (T4, NA = not active) came out at 0.75 µg/mL. For the same compound, in assay [3] (T4, NA = not active), the “Plasmodium falciparum (D6 clone) IC 50” value was 1.3 µg/mL.
With `N=C(N)c1ccc(OCCCCCOc2ccc(C(=N)N)cc2)cc1` [Pentamidine, reference compound], in the assay with Leishmania donovani (Leishmania donovani, T4, read-out: Leishmania donovani IC 50), the IC50 came out at 2.1 µg/mL (≈ 6.17 µM). Further, the IC90 in the assay on Leishmania donovani (Leishmania donovani, T4, read-out: Leishmania donovani IC 90) was 10 µg/mL (≈ 29.4 µM).
As usually defined, the MIC is the least concentration at which growth counts as inhibited. On to `CO[C@H]1/C=C/O[C@@]2(C)Oc3c(C)c(O)c4c(O)c(c(/C=N/N5CCN(C)CC5)c(O)c4c3C2=O)NC(=O)/C(C)=C\C=C\[C@H](C)[C@H](O)[C@@H](C)[C@@H](O)[C@@H](C)[C@H](OC(C)=O)[C@@H]1C` [Rifampin, reference compound], for which the MIC in assay [4] (T4, read-out: Mycobacterium Tuberculosis (H37Rv) MIC) was 0.5 µg/mL (≈ 0.608 µM); in assay [4] (T6, read-out: Mycobacterium tuberculosis MIC) it was 0.24 µg/mL (≈ 0.292 µM); in assay [4] (rifampin = positive control, read-out: MIC against Mycobacterium tuberculosis (Mtb)), 0.16 µg/mL (≈ 0.194 µM).
